In patent publication US7410982B2, “Propanamine derivatives as serotonin and norepinephrine reuptake inhibitors” (Eli Lilly and Company, priority 2002, dated 2008):

Question: With `CNCC[C@@H](Oc1cncc2sccc12)c1ccccc1.Cl` as the compound, how does the melting point read?
Answer: 68.1 °C
